PubChem BioAssay (NCI)
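Values below derive from 48-hour exposures of cells grown in 96-well plates, with endpoints linearly interpolated between the two concentrations bracketing the appropriate inhibition level. TGI denotes the concentration required for complete inhibition of growth.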 Where a SMILES comes first, the peptide text is derived from it. Bridges are numbered along the chain shown (N, C = ends). The star is where a group is joined. Cbz = O=C(OCc1ccccc1)*

How the values were obtained:
Assay in all cases: NCI anticancer screen, dose series, 48 h
[1] = system: IGROV1 ovarian
[2] = system: A549 NSCLC
[3] = system: TK-10 renal
[4] = system: LOX IMVI melanoma
[5] = system: U251 CNS
[6] = system: SW-620 colon
[7] = system: SF-539 CNS
[8] = system: ACHN renal
[9] = system: SK-MEL-28 melanoma
[10] = system: OVCAR-8 ovarian
[11] = system: A498 renal
[12] = system: NCI/ADR-RES ovarian
[13] = system: HOP-92 NSCLC
[14] = system: NCI-H460 lung
[15] = system: EKVX NSCLC
[16] = system: MDA-N
[17] = system: SK-MEL-2 melanoma
[18] = system: MDA-MB-435
[19] = system: RPMI-8226 leukemia
[20] = system: RXF 393 renal
[21] = system: HOP-62 NSCLC
[22] = system: SNB-75 CNS
[23] = system: OVCAR-5 ovarian
[24] = system: M14 melanoma
[25] = system: SN12C renal
[26] = system: NCI-H23 lung
[27] = system: 786-0 renal
[28] = system: SF-295 CNS
[29] = system: HL-60(TB) leukemia
[30] = system: OVCAR-3 ovarian
[31] = system: NCI-H226 lung
[32] = system: MDA-MB-231 breast
[33] = system: UO-31 renal
[34] = system: PC-3 prostate
[35] = system: K-562 leukemia
[36] = system: CAKI-1 renal
[37] = system: UACC-257 melanoma
[38] = system: SK-MEL-5 melanoma
[39] = system: HS 578T breast
[40] = system: COLO 205 colon
[41] = system: NCI-H522 lung
[42] = system: UACC-62 melanoma
[43] = system: OVCAR-4 ovarian
[44] = system: DU-145 prostate
[45] = system: KM12 colon
[46] = system: CCRF-CEM leukemia
[47] = system: SK-OV-3 ovarian
[48] = system: MCF7 breast
[49] = system: MALME-3M melanoma
[50] = system: HCT-15 colon
[51] = system: SNB-19 CNS
[52] = system: HT29 colon
[53] = system: MOLT-4 leukemia
[54] = system: HCT-116 colon
[55] = system: T-47D breast
[56] = system: SF-268 CNS
[57] = system: HCC-2998 colon
[58] = system: BT-549 breast
[59] = system: SR leukemia

**Q.** What does the source list for CNC(=O)C1CCCCNC(=O)CCC(NC(=O)OCc2ccccc2)C(=O)N1 (stereo not drawn) (Cbz-Glu-Lys-NHMe; lactam 1-2; configuration not given here)?
**A.** TGI [1]: > 100 µM; TGI [2]: > 100 µM; TGI [3]: > 100 µM; TGI [4]: > 100 µM; TGI [5]: > 100 µM; TGI [6]: > 100 µM; TGI [7]: > 100 µM; TGI [8]: > 100 µM; TGI [9]: > 100 µM; TGI [10]: > 100 µM; TGI [11]: > 100 µM; TGI [12]: > 100 µM; TGI [13]: > 100 µM; TGI [14]: > 100 µM; TGI [15]: > 100 µM; TGI [16]: > 100 µM; TGI [17]: > 100 µM; TGI [18]: > 100 µM; TGI [19]: > 100 µM; TGI [20]: > 100 µM; TGI [21]: > 100 µM; TGI [22]: > 100 µM; TGI [23]: > 100 µM; TGI [24]: > 100 µM; TGI [25]: > 100 µM; TGI [26]: > 100 µM; TGI [27]: > 100 µM; TGI [28]: > 100 µM; TGI [29]: > 100 µM; TGI [30]: > 100 µM; TGI [31]: > 100 µM; TGI [32]: > 100 µM; TGI [33]: > 100 µM; TGI [34]: > 100 µM; TGI [35]: > 100 µM; TGI [36]: > 100 µM; TGI [37]: > 100 µM; TGI [38]: > 100 µM; TGI [39]: > 100 µM; TGI [40]: > 100 µM; TGI [41]: > 100 µM; TGI [42]: > 100 µM; TGI [43]: > 100 µM; TGI [44]: > 100 µM; TGI [45]: > 100 µM; TGI [46]: > 100 µM; TGI [47]: > 100 µM; TGI [48]: > 100 µM; TGI [49]: > 100 µM; TGI [50]: > 100 µM; TGI [51]: > 100 µM; TGI [52]: > 100 µM; TGI [53]: > 100 µM; TGI [54]: > 100 µM; TGI [55]: > 100 µM; TGI [56]: > 100 µM

**Q.** Which TGI [1] does the source give for C=CC(=O)NCCC(=O)OCn1cc(F)c(=O)[nH]c1=O here?
**A.** > 100 µM

**Q.** What about the TGI [2] of the same compound?
**A.** > 100 µM

**Q.** What about the TGI [3] of the same compound?
**A.** > 100 µM

**Q.** And the TGI [4]?
**A.** > 100 µM

**Q.** What about the TGI [5] of the same compound?
**A.** > 100 µM

**Q.** And the TGI [57]?
**A.** > 100 µM

**Q.** What about the TGI [6] of the same compound?
**A.** > 100 µM

**Q.** What about the TGI [7] of the same compound?
**A.** > 100 µM

**Q.** And the TGI [8]?
**A.** > 100 µM

**Q.** What about the TGI [9] of the same compound?
**A.** > 100 µM

**Q.** What about the TGI [10] of the same compound?
**A.** > 100 µM

**Q.** What about the TGI [11] of the same compound?
**A.** > 100 µM

**Q.** What about the TGI [12] of the same compound?
**A.** > 100 µM

**Q.** What about the TGI [13] of the same compound?
**A.** > 100 µM

**Q.** What about the TGI [58] of the same compound?
**A.** > 100 µM

**Q.** What about the TGI [14] of the same compound?
**A.** 2.34 µM

**Q.** What about the TGI [15] of the same compound?
**A.** > 100 µM

**Q.** And the TGI [16]?
**A.** > 100 µM

**Q.** What about the TGI [17] of the same compound?
**A.** > 100 µM

**Q.** And the TGI [18]?
**A.** > 100 µM

**Q.** What about the TGI [19] of the same compound?
**A.** > 100 µM

**Q.** And the TGI [20]?
**A.** 94.6 µM

**Q.** And the TGI [21]?
**A.** > 100 µM

**Q.** And the TGI [22]?
**A.** > 100 µM

**Q.** And the TGI [23]?
**A.** > 100 µM

**Q.** What about the TGI [24] of the same compound?
**A.** > 100 µM

**Q.** And the TGI [25]?
**A.** 15.3 µM

**Q.** What about the TGI [26] of the same compound?
**A.** > 100 µM

**Q.** What about the TGI [27] of the same compound?
**A.** > 100 µM

**Q.** What about the TGI [28] of the same compound?
**A.** > 100 µM

**Q.** What about the TGI [29] of the same compound?
**A.** > 100 µM

**Q.** What about the TGI [30] of the same compound?
**A.** > 100 µM

**Q.** And the TGI [31]?
**A.** > 100 µM

**Q.** And the TGI [33]?
**A.** > 100 µM

**Q.** What about the TGI [34] of the same compound?
**A.** > 100 µM

**Q.** And the TGI [35]?
**A.** > 100 µM

**Q.** What about the TGI [36] of the same compound?
**A.** > 100 µM

**Q.** And the TGI [37]?
**A.** > 100 µM

**Q.** What about the TGI [38] of the same compound?
**A.** > 100 µM

**Q.** And the TGI [39]?
**A.** > 100 µM

**Q.** And the TGI [40]?
**A.** > 100 µM

**Q.** What about the TGI [41] of the same compound?
**A.** > 100 µM

**Q.** And the TGI [42]?
**A.** > 100 µM

**Q.** And the TGI [43]?
**A.** 40.3 µM

**Q.** And the TGI [44]?
**A.** > 100 µM

**Q.** And the TGI [45]?
**A.** > 100 µM

**Q.** What about the TGI [46] of the same compound?
**A.** > 100 µM

**Q.** What about the TGI [47] of the same compound?
**A.** > 100 µM

**Q.** And the TGI [48]?
**A.** > 100 µM

**Q.** And the TGI [49]?
**A.** > 100 µM

**Q.** What about the TGI [50] of the same compound?
**A.** > 100 µM

**Q.** What about the TGI [59] of the same compound?
**A.** 52.5 µM

**Q.** And the TGI [51]?
**A.** > 100 µM

**Q.** And the TGI [52]?
**A.** > 100 µM

**Q.** And the TGI [53]?
**A.** > 100 µM

**Q.** What about the TGI [54] of the same compound?
**A.** 66.8 µM

**Q.** And the TGI [55]?
**A.** > 100 µM

**Q.** What about the TGI [56] of the same compound?
**A.** > 100 µM

**Q.** With O=C(O)c1cc(CCc2ccc(O)c(O)c2)ccc1O as the compound, how does the TGI [1] read?
**A.** > 100 µM

**Q.** And the TGI [2]?
**A.** > 100 µM

**Q.** What about the TGI [5] of the same compound?
**A.** > 100 µM

**Q.** What about the TGI [57] of the same compound?
**A.** > 100 µM

**Q.** And the TGI [6]?
**A.** > 100 µM

**Q.** What about the TGI [7] of the same compound?
**A.** > 100 µM

**Q.** And the TGI [8]?
**A.** > 100 µM

**Q.** What about the TGI [10] of the same compound?
**A.** > 100 µM

**Q.** What about the TGI [11] of the same compound?
**A.** > 100 µM

**Q.** And the TGI [12]?
**A.** > 100 µM

**Q.** What about the TGI [58] of the same compound?
**A.** > 100 µM

**Q.** And the TGI [14]?
**A.** > 100 µM

**Q.** And the TGI [16]?
**A.** 32.3 µM

**Q.** And the TGI [17]?
**A.** > 100 µM

**Q.** And the TGI [18]?
**A.** > 100 µM

**Q.** And the TGI [21]?
**A.** > 100 µM

**Q.** And the TGI [22]?
**A.** > 100 µM

**Q.** And the TGI [23]?
**A.** > 100 µM

**Q.** And the TGI [24]?
**A.** > 100 µM

**Q.** What about the TGI [25] of the same compound?
**A.** > 100 µM

**Q.** What about the TGI [26] of the same compound?
**A.** > 100 µM

**Q.** What about the TGI [27] of the same compound?
**A.** > 100 µM

**Q.** What about the TGI [28] of the same compound?
**A.** > 100 µM

**Q.** And the TGI [29]?
**A.** 59.2 µM

**Q.** What about the TGI [30] of the same compound?
**A.** > 100 µM

**Q.** And the TGI [31]?
**A.** > 100 µM

**Q.** What about the TGI [33] of the same compound?
**A.** > 100 µM

**Q.** And the TGI [34]?
**A.** > 100 µM

**Q.** And the TGI [35]?
**A.** 45.8 µM

**Q.** What about the TGI [36] of the same compound?
**A.** > 100 µM

**Q.** What about the TGI [37] of the same compound?
**A.** > 100 µM

**Q.** And the TGI [38]?
**A.** > 100 µM

**Q.** And the TGI [39]?
**A.** > 100 µM

**Q.** And the TGI [40]?
**A.** > 100 µM

**Q.** What about the TGI [41] of the same compound?
**A.** > 100 µM

**Q.** And the TGI [42]?
**A.** > 100 µM

**Q.** And the TGI [44]?
**A.** > 100 µM

**Q.** What about the TGI [45] of the same compound?
**A.** > 100 µM

**Q.** What about the TGI [46] of the same compound?
**A.** > 100 µM

**Q.** What about the TGI [47] of the same compound?
**A.** > 100 µM

**Q.** What about the TGI [48] of the same compound?
**A.** > 100 µM

**Q.** And the TGI [49]?
**A.** > 100 µM

**Q.** And the TGI [50]?
**A.** > 100 µM

**Q.** What about the TGI [59] of the same compound?
**A.** 61.7 µM

**Q.** What about the TGI [51] of the same compound?
**A.** > 100 µM

**Q.** What about the TGI [52] of the same compound?
**A.** > 100 µM

**Q.** And the TGI [53]?
**A.** > 100 µM

**Q.** What about the TGI [54] of the same compound?
**A.** > 100 µM

**Q.** What about the TGI [55] of the same compound?
**A.** > 100 µM

**Q.** And the TGI [56]?
**A.** > 100 µM
